Results as given in ChEMBL document CHEMBL1201862, “PubChem BioAssay data set” (2004).
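Five concentrations, 48 hours, 96-well plates. GI50 marks 50% less growth.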 Calls of active or inactive are those of the source. Cut-off read from the data, not from the text of the source: active = GI50 up to about 1.1 µM and inactive = higher.

Key:
Assay in all cases: inhibition of tumour cell growth, NCI panel, 48 h
786-0 = system: 786-0
A498 = system: A498
A549 = system: A549
ACHN = system: ACHN
BT-549 = system: BT-549
CAKI-1 = system: CAKI-1
CCRF-CEM = system: CCRF-CEM
COLO 205 = system: COLO 205
DU-145 = system: DU-145
EKVX = system: EKVX
HCC 2998 = system: HCC 2998
HCT-116 = system: HCT-116
HCT-15 = system: HCT-15
HL-60 = system: HL-60
HOP-62 = system: HOP-62
HOP-92 = system: HOP-92
HT-29 = system: HT-29
Hs-578T = system: Hs-578T
IGROV-1 = system: IGROV-1
K562 = system: K562
KM12 = system: KM12
LOX IMVI = system: LOX IMVI
M14 = system: M14
MCF7 = system: MCF7
MDA-MB-231 = system: MDA-MB-231
MDA-MB-435 = system: MDA-MB-435
MDA-N = system: MDA-N
MOLT-4 = system: MOLT-4
Malme-3M = system: Malme-3M
NCI-H226 = system: NCI-H226
NCI-H23 = system: NCI-H23
NCI-H460 = system: NCI-H460
NCI-H522 = system: NCI-H522
NCI/ADR-RES = system: NCI/ADR-RES
OVCAR-3 = system: OVCAR-3
OVCAR-4 = system: OVCAR-4
OVCAR-5 = system: OVCAR-5
OVCAR-8 = system: OVCAR-8
PC-3 = system: PC-3
RPMI-8226 = system: RPMI-8226
RXF 393 = system: RXF 393
SF-268 = system: SF-268
SF-295 = system: SF-295
SF-539 = system: SF-539
SK-MEL-28 = system: SK-MEL-28
SK-MEL-2 = system: SK-MEL-2
SK-MEL-5 = system: SK-MEL-5
SK-OV-3 = system: SK-OV-3
SN12C = system: SN12C
SNB-19 = system: SNB-19
SR = system: SR
SW-620 = system: SW-620
T47D = system: T47D
TK-10 = system: TK-10
U-251 = system: U-251
UACC-257 = system: UACC-257
UACC-62 = system: UACC-62
UO-31 = system: UO-31
SNB-75 = system: SNB-75

Measured: GI50

Nc1nc(-c2ccc3ccccc3c2)cc(-c2cc(-c3ccc4ccccc4c3)nc(N)n2)n1
inactive: 786-0 > 100 µM | A498 > 100 µM | A549 > 100 µM | ACHN > 100 µM | BT-549 > 100 µM | CAKI-1 > 100 µM | CCRF-CEM > 100 µM | COLO 205 > 100 µM | DU-145 > 100 µM | EKVX 75.3 µM | HCC 2998 > 100 µM | HCT-116 > 100 µM | HL-60 > 100 µM | HOP-62 > 100 µM | HOP-92 > 100 µM | HT-29 > 100 µM | Hs-578T > 100 µM | IGROV-1 > 100 µM | K562 > 100 µM | KM12 > 100 µM | LOX IMVI > 100 µM | M14 > 100 µM | MCF7 > 100 µM | MDA-MB-231 > 100 µM | MDA-MB-435 > 100 µM | MDA-N > 100 µM | MOLT-4 > 100 µM | Malme-3M > 100 µM | NCI-H226 > 100 µM | NCI-H23 > 100 µM | NCI-H460 > 100 µM | NCI-H522 > 100 µM | NCI/ADR-RES > 100 µM | OVCAR-3 > 100 µM | OVCAR-4 > 100 µM | OVCAR-5 > 100 µM | OVCAR-8 > 100 µM | PC-3 > 100 µM | RPMI-8226 > 100 µM | RXF 393 > 100 µM | SF-268 > 100 µM | SF-295 > 100 µM | SF-539 > 100 µM | SK-MEL-28 > 100 µM | SK-MEL-2 > 100 µM | SK-MEL-5 > 100 µM | SK-OV-3 > 100 µM | SN12C > 100 µM | SNB-19 > 100 µM | SR > 100 µM | SW-620 > 100 µM | T47D > 100 µM | TK-10 > 100 µM | U-251 > 100 µM | UACC-257 > 100 µM | UACC-62 > 100 µM | UO-31 > 100 µM
> 100 µM: HCT-15

Cc1ccc(C2(O)c3ccccc3C(=O)N(C)C2(O)c2ccc(C)cc2)cc1 (stereo not drawn)
inactive: 786-0 37 µM | A498 > 100 µM | A549 > 100 µM | BT-549 91.8 µM | CAKI-1 68.1 µM | CCRF-CEM 15.4 µM | COLO 205 > 100 µM | DU-145 > 100 µM | EKVX 32.8 µM | HCC 2998 79.3 µM | HCT-116 49.2 µM | HL-60 16.1 µM | HOP-62 22 µM | HOP-92 18.6 µM | HT-29 46.8 µM | Hs-578T 22.6 µM | IGROV-1 > 100 µM | K562 28.4 µM | KM12 29.9 µM | LOX IMVI 25.5 µM | M14 62.7 µM | MCF7 38.9 µM | MDA-MB-231 28.2 µM | MDA-MB-435 > 100 µM | MDA-N > 100 µM | MOLT-4 12.8 µM | Malme-3M > 100 µM | NCI-H23 > 100 µM | NCI-H460 22.6 µM | NCI-H522 > 100 µM | NCI/ADR-RES 39.4 µM | OVCAR-3 > 100 µM | OVCAR-4 18.2 µM | OVCAR-5 > 100 µM | OVCAR-8 25.5 µM | PC-3 > 100 µM | RPMI-8226 > 100 µM | RXF 393 32.3 µM | SF-268 21.2 µM | SF-295 38.1 µM | SF-539 45.1 µM | SK-MEL-28 > 100 µM | SK-MEL-2 > 100 µM | SK-MEL-5 33.5 µM | SK-OV-3 > 100 µM | SN12C 58.3 µM | SNB-19 21.5 µM | SR 2.39 µM | SW-620 34.5 µM | T47D > 100 µM | TK-10 > 100 µM | U-251 17.4 µM | UACC-257 > 100 µM | UACC-62 > 100 µM | UO-31 57.8 µM
52 µM: HCT-15

CN(C)CC1CCC/C(=C\c2ccccc2)C1=O (stereo not drawn)
2.14 µM: HCT-15
active: CCRF-CEM 0.959 µM | HL-60 0.512 µM | MCF7 0.575 µM | SR 0.944 µM
inactive: 786-0 2.65 µM | A498 17.4 µM | A549 19 µM | ACHN 3.5 µM | BT-549 7.69 µM | CAKI-1 1.77 µM | COLO 205 2.24 µM | DU-145 15.3 µM | EKVX 17.9 µM | HCC 2998 15.5 µM | HCT-116 1.56 µM | HOP-62 19.9 µM | HOP-92 2.44 µM | HT-29 1.75 µM | Hs-578T 2.77 µM | IGROV-1 3.74 µM | KM12 1.19 µM | LOX IMVI 1.69 µM | MDA-MB-231 1.98 µM | MDA-MB-435 1.78 µM | MDA-N 2.99 µM | MOLT-4 4.6 µM | Malme-3M 1.85 µM | NCI-H226 2.82 µM | NCI-H23 10.2 µM | NCI-H460 3.1 µM | NCI-H522 1.57 µM | NCI/ADR-RES 10.8 µM | OVCAR-3 1.94 µM | OVCAR-4 1.6 µM | OVCAR-5 15.6 µM | OVCAR-8 3.94 µM | PC-3 8.49 µM | RXF 393 2.84 µM | SF-268 2.94 µM | SF-295 19.5 µM | SF-539 4.04 µM | SK-MEL-28 2.23 µM | SK-MEL-2 5.5 µM | SK-MEL-5 8.79 µM | SK-OV-3 19.8 µM | SN12C 6.14 µM | SNB-19 16.2 µM | SNB-75 13.8 µM | SW-620 1.55 µM | T47D 2.12 µM | TK-10 2.36 µM | U-251 15.4 µM | UACC-257 2.55 µM | UACC-62 7.01 µM | UO-31 2.32 µM

O=C1c2ccccc2C(=O)c2[nH]c(=O)c(/C=N/Nc3ccc([N+](=O)[O-])cc3)nc21
inactive: 786-0 15.9 µM | A498 4.67 µM | A549 3.52 µM | ACHN 13.2 µM | BT-549 5.08 µM | CAKI-1 17.3 µM | CCRF-CEM > 35.5 µM | COLO 205 7.98 µM | DU-145 1.81 µM | EKVX 24.1 µM | HCC 2998 1.61 µM | HCT-116 19.8 µM | HL-60 8.79 µM | HOP-62 2.28 µM | HOP-92 15.2 µM | HT-29 2.59 µM | Hs-578T 3.22 µM | IGROV-1 14.4 µM | K562 > 43.6 µM | KM12 5.73 µM | LOX IMVI 3.56 µM | M14 2.01 µM | MCF7 9.38 µM | MDA-MB-231 11.3 µM | MDA-MB-435 1.8 µM | MDA-N 1.75 µM | MOLT-4 22.9 µM | Malme-3M 1.21 µM | NCI-H226 1.51 µM | NCI-H23 1.63 µM | NCI-H460 2.06 µM | NCI-H522 3.23 µM | NCI/ADR-RES 19.1 µM | OVCAR-3 2.92 µM | OVCAR-4 18.4 µM | OVCAR-5 31.6 µM | OVCAR-8 15.8 µM | PC-3 17.1 µM | RPMI-8226 > 37 µM | RXF 393 6.04 µM | SF-268 8.59 µM | SF-295 3.32 µM | SF-539 5.93 µM | SK-MEL-28 5.47 µM | SK-MEL-2 3.86 µM | SK-MEL-5 1.62 µM | SK-OV-3 9.73 µM | SN12C 11.9 µM | SNB-19 15.9 µM | SR 17.5 µM | SW-620 12.1 µM | T47D > 47.2 µM | TK-10 16.1 µM | U-251 7.24 µM | UACC-257 2.15 µM | UACC-62 2.09 µM | UO-31 6.58 µM
3.67 µM: HCT-15
